Laboratory results reported in patent US8334316B2, “Substituted organosulfur compounds and methods of using thereof” (ACEA Biosciences, Inc., priority 2004, dated 2012).

Key:
Type in all cases: cell-based
[1] = tested on: microtubules in COS cells; experiment: Microtubule network in cultured COS cells (anti-tubulin immunofluorescence, confocal microscopy)
Protocol: Cell Culture and Immunocytochemistry. COS cells were grown in DMEM media supplemented with non-essential amino acids, 10% FBS, antibiotic-antimycotic (Gibco BRL) at 37° C. and 5.5% CO2. […] Cells were then rinsed once with warm PBS, fixed with cold methanol, rinsed again in PBS and blocked overnight at 4° C. in PBT (PBS, 1% BSA, 0.5% Triton X-100). All subsequent stains and washes were done in PBT at room temperature unless stated otherwise. Cells were stained with the anti-tubulin mouse antibody DM-1 at 1:1000 for 1 hour, washed four times for 15 minutes each and then treated with Cy-3 conjugated goat anti mouse antibody at 1:100 for 1 hour in the dark. Next, samples were washed four times for 15 minutes each in PBT in the dark followed by a final 15 minute wash in PBS in the dark. Samples were then viewed by laser scanning confocal microscopy.

HepG2 cells = experiment: MTT assay IC50 (48 h), HepG2 (eighth cell line not given); settings: Homo sapiens; HepG2, 48 hours
Protocol: (§1) In another assay format, a test compound is assayed for its cytotoxicity and/or cytostatic effect on certain cancer cell types, using endpoint assay methods. Cells in the NCI cancer cell panel may be used. Cells after a pre-incubation for certain length of time (for example, 8 hrs or 24 hrs) are incubated with a test compound at serially-diluted concentrations (for example, five 10-fold dilutions) for 24 hrs and/or 48 hrs, and/or other specific length of time. The dose dependent cytotoxicity and/or cytostatic effects of test compounds can then be tested and evaluated using the 3-(4,5-dimethylthiazol-2-yl)-2,5-diphenyltetrazolium bromide (MTT) assay method, as described by, for example, Boyd (In Principle of Practice of Oncology, Devita, J. T., Hellman, S. and Rosenberg S. A. (Eds), 1989, Vol, 3, PPO Update, No. 10).
(§2) The anticancer potency of DBTS and its derivatives were tested in 8 different types of human cancer cell lines using the RT-CES system and MTT assay. The 8 cancer cell lines were HT1080 (the human fibrosarcoma cell line), H460 (human non small cell lung cancer cell line), OVCAR4 (the human ovarian cancer cell line), MCF7 (human breast cancer cell line) MDA-MB231 (M231, the human breast cancer cell line) A2780 (the human […] cancer cell line) Jurkat (the human T cell leukemia cell line). The test DBTS derivatives include ACEA100107, ACEA100108, ACEA100109, ACEA100111, ACEA100115, ACEA100116, ACEA100117, ACEA100118, ACEA100119, and ACEA100120.
(§3) For the MTT assay, the cells were seeded into the regular 96× well plates at the cell seeding density ranging from 5000 cells/well to 15,000 cells/well. The cells were incubated at 5% CO2 and 37° C. for overnight. The derivatives were serially diluted and added to the cells. The treatment was terminated after 48 hours of incubation by adding MTT staining reagent. After 4 hours, the staining was stopped by the stop buffer and then the calorimetric measurement was carried out on a microtiter plate reader at dual wave length, 650 nm and 550 nm.

[2] = tested on: HT1080 (human fibrosarcoma cell line); experiment: RT-CES system cell proliferation/cytotoxicity IC50, HT1080; settings: HT-1080, time point of maximum inhibition
Source text: The RT-CES system comprises three components, an electronic sensor analyzer, a device station and 16× or 96× microtiter plate devices. Microelectrode sensor array was fabricated on glass slides with lithographical microfabrication methods and the electrode-containing slides are assembled to plastic trays to form electrode-containing wells. Each 16× (or 96×) microtiter plate device used in RT-CES system comprises up to 16 (or 96) such electrode-containing wells. The device station receives the 16× or 96× microtiter plate devices and is capable of electronically switching any one of the wells to the sensor analyzer for impedance measurement. In operation, the devices with cells cultured in the wells are placed into a device station that is located inside an incubator. Electrical cables connect the device station to the sensor analyzer. Under the RT-CES software control, the sensor analyzer can automatically select wells to be measured and continuously conduct impedance measurements. The impedance data from the analyzer is transferred to a computer, analyzed and processed by the integrated software.
To quantify cell status based on the measured cell-electrode impedance, a parameter termed Cell Index is derived, according to
[formula] where Rb(f) and Rcell(f) are the frequency dependent electrode resistances (a component of impedance) without cells or with cell present, respectively. N is the number of the frequency points at which the impedance is measured. Thus, Cell Index is a quantitative measure of the status of the cells in an electrode-containing well. Under the same physiological conditions, more cells attached on to the electrodes leads to larger Rcell(f) value, leading to a larger value for Cell Index. Furthermore, for the same number of cells present in the well, a change in the cell status such as morphology will lead to a change in the Cell Index. For example, an increase in cell adhesion or cell spreading leads to larger cell-electrode contact area which will lead to an increase in Rcell(f) and thus a larger value for Cell Index. The Cell Index may also be calculated using a formula different from the one described here. Other methods for calculating the Cell Index based on impedance measurement can be found in PCT application number PCT/US04/37696, fined on Nov. 12, 2004, PCT application number PCT/US05/04481, filed on Feb. 9, 2005, U.S. patent application Ser. No. 10/987,732, filed on Nov. 12, 2004, and U.S. patent application Ser. No. 11/055,639, filed on Feb. 9, 2005.
HT1080 cells (human fibrosarcoma cells) were seeded into wells of 16× or 96× microtiter plate devices (electronic plates, i.e., the plates comprise microelectrode sensor arrays in the wells of the plate) with an initial seeding density of 4,000 cells per well and were pre-incubated in incubator under standard cell culture conditions for about 18.6 hrs. Dibenzyl trisulfide solution in DMSO was added into wells following the incubation period. The cell status was monitored prior to and after the compound addition using RT-CES system. The cell indexes of different wells were between 0.72 and 1.45 just before the compound addition. […] The cell index was normalized against the cell index values at a time point just after compound addition (about 20 hrs after cell seeding).
For the assay performed on the RT-CES system, the cells were seeded into the 16× or 96× microtiter plate devices (electronic plates, i.e., the plates comprise microelectrode sensor arrays in the wells of the plate) at the seeding density ranging from 5000 cells/well to 15,000 cells/well. The cells were incubated at 5% CO2 and 37° C. for overnight till the cell indices reached the growth phase where the cell index was between 0.8 and 1.2. Serially diluted compounds were then added to the cells followed by dynamic monitoring of the effect of the compounds on the cell proliferation and cytotoxicity. […]

[3] = tested on: OVCAR4 (human ovarian cancer cell line); experiment: MTT assay IC50 (48 h), OVCAR4; settings: OVCAR-4, OVCAR4, 48 hours
Protocol: as §1, §2, §3

| Compound | Microtubule network appearance ([1]; 4 hours exposure) | Microtubule network appearance ([1]; 24 hours exposure, increasing dosage) | IC50 (HepG2 cells) [µM] | IC50 [2] [µM] | IC50 [3] [µM] | Cell viability / microtubule network ([1]; 24 hours, 6 uM or 18 uM) | Microtubule network appearance ([1]; 24 hours, 1 uM and 3 uM) | Microtubule network appearance ([1]; 24 hours, 9 uM) | Microtubule network / cell appearance ([1]; 24 hours, 1 uM) | Cell viability ([1]; 24 hours, 3 uM or 9 uM) |
| --- | --- | --- | --- | --- | --- | --- | --- | --- | --- | --- |
| CC(=O)O[C@H]1C(=O)[C@@]2(C)[C@H]([C@H](OC(=O)c3ccccc3)[C@]3(O)C[C@H](OC(=O)[C@H](O)[C@@H](NC(=O)c4ccccc4)c4ccccc4)C(C)=C1C3(C)C)[C@]1(OC(C)=O)CO[C@@H]1C[C@@H]2O [Taxol, paclitaxel, reference compound] | Microtubules appear bundled in some locations | increased bundling and the short microtubules persist | – | – | – | – | – | – | – | – |
| c1ccc(CSSSCc2ccccc2)cc1 [DBTS, Dibenzyl trisulfide] | The microtubule network is completely disrupted | – | > 50 | 2.2 | > 50 | no cells are viable | – | – | – | – |
| Clc1ccccc1CSSSCc1ccccc1Cl [ACEA100115, Di(o-chlorobenzyl)trisulfide] | – | – | > 50 | 2.2 | > 50 | – | – | – | – | – |
| Fc1ccc(CSSSCc2ccc(F)cc2)cc1 [ACEA100108, Di(p-fluorobenzyl)trisulfide] | the microtubule network is markedly altered at all concentrations tested | – | > 50 | 1.3 | > 50 | – | appear relatively normal | the microtubules appear short and the network is abnormal | – | – |
| Clc1ccc(CSSSCc2ccc(Cl)cc2)cc1 [ACEA100118, Di(p-chlorobenzyl)trisulfide] | – | – | > 50 | 1.2 | > 50 | – | – | – | – | – |
| Cc1cccc(CSSSCc2cccc(C)c2)c1 [ACEA100116, di(m-methylbenzyl)trisulfide] | at the two higher concentrations, microtubules appear very short and abnormal | – | > 50 | 1.9 | > 50 | – | – | – | appear relatively normal | essentially all cells treated with 3 uM or 9 uM were dead |
| FC(F)(F)c1cccc(CSSSCc2cccc(C(F)(F)F)c2)c1 [ACEA100117, Di(m-trifluoromethylbenzyl)trisulfide] | – | – | > 50 | 27.5 | > 50 | – | – | – | – | – |
